Reference: PMC3756011, “Evaluation of Memory Enhancing Clinically Available Standardized Extract of Bacopa monniera on P-Glycoprotein and Cytochrome P450 3A in Sprague-Dawley Rats” (PLoS ONE, 2013)

Key:
Pgp = tested on: Pgp; set-up: method as in PMID 11318771; conditions: earlier reports; cited from earlier work
[1] = set-up: method as in PMID 15673597; conditions: rat vs human; cited from earlier work
[2] = Oral pharmacokinetics of carbamazepine and carbamazepine 10,11-epoxide with and without BM pre-treatment; format: in vivo, male Sprague-Dawley rat; conditions: for CL/F / Cmax / AUC(0-inf) / MRT / AUC(0-∞): Mean ± SD
Protocol: Samples were vigorously vortexed for five minutes and centrifuged at 12,000 rpm for 20 minutes at 4°C. Supernatant thus obtained were analysed using HPLC-UV method. […] Column efﬂuent was monitored at 286 nm. The mobile phase was a mixture of 10 mM ammonium acetate (pH 7.4) and acetonitrile (65∶35). Chromatography was performed at a ﬂow rate of 1.0 ml/min. Pharmacokinetic parameters of probe drugs in plasma were derived from plasma concentration-time profile of probe drugs by Non-Compartmental analysis using WinNonlin Ver 5.1 (Pharsight Corporation, Mountain Veiw, CA).

[3] = Oral pharmacokinetics of digoxin with and without BM pre-treatment; format: in vivo, male Sprague-Dawley rat; conditions: for AUC(0-inf) / CL/F / MRT / Vd/F / half-life / Cmax: male, Sprague-Dawley, rat, plasma, po, 0.2 mg/kg
Text: Rats were divided in two groups (total 40 rats; 10 rats each group) for both probe drugs viz. control and BM pre-treated group.
Pharmacokinetic parameters of probe drugs in plasma were derived from plasma concentration-time profile of probe drugs by Non-Compartmental analysis using WinNonlin Ver 5.1 (Pharsight Corporation, Mountain Veiw, CA).

[4] = 2 hours after digoxin 0.2 mg/kg oral, BM pretreated vs vehicle
[5] = BM pre-treated vs vehicle treated rats, abstract
[6] = BM pretreated compared to vehicle pretreated rats
[7] = BM pretreated rats (31 mg/kg/day 7 days), carbamazepine 50 mg/kg oral
[8] = vehicle pretreated rats, carbamazepine 50 mg/kg oral
[9] = BM pre-treated compared to vehicle treated rats
[10] = BM pretreated rats (31 mg/kg/day 7 days), digoxin 0.2 mg/kg oral
[11] = vehicle pretreated rats, digoxin 0.2 mg/kg oral

SMILES: NC(=O)N1c2ccccc2C=Cc2ccccc21 [CBZ, carbamazepine]
- Pgp substrate status (Pgp): not a Pgp substrate
- metabolic clearance, rat higher compared to human [1]: 10 fold
- increase in AUC following BM pre-treatment [2, 5]: 4 fold
- increase in Cmax following BM pre-treatment [2, 5]: 1.8 fold
- decrease in CL/F in BM pretreated rats [2, 6]: 3.8 times
- increase in mean AUC in BM pretreated rats [2, 6]: 4 times
- increase in mean Cmax in BM pretreated rats [2, 6]: 1.8 times
- CL/F ([2]; male, Sprague-Dawley, rat, in vivo, po, 50 mg/kg, BM pretreated rats (31 mg/kg/day 7 days), carbamazepine 50 mg/kg oral, read-out: CL/F (converted)): 323 mL/h/kg
- CL/F ([2]; male, Sprague-Dawley, rat, in vivo, po, 50 mg/kg, vehicle pretreated rats, carbamazepine 50 mg/kg oral, read-out: CL/F (converted)): 1250 mL/h/kg
- Cmax ([2]; male, Sprague-Dawley, rat, plasma, po, 50 mg/kg, BM pretreated rats (31 mg/kg/day 7 days), carbamazepine 50 mg/kg oral 24 h after last BM, read-out: Cmax): 14400 ± 1220 ng/mL
- AUC(0-inf) ([2]; male, Sprague-Dawley, rat, plasma, po, 50 mg/kg, BM pretreated rats (31 mg/kg/day 7 days), carbamazepine 50 mg/kg oral): 169000 ± 65600 ng·h/mL
- MRT ([2]; male, Sprague-Dawley, rat, plasma, po, 50 mg/kg, BM pretreated rats (31 mg/kg/day 7 days), carbamazepine 50 mg/kg oral, read-out: MRT): 10.7 ± 6.57 h
- AUC(0-inf) ([2]; male, Sprague-Dawley, rat, plasma, po, 50 mg/kg, vehicle pretreated rats, carbamazepine 50 mg/kg oral): 40400 ± 3890 ng·h/mL
- Cmax ([2]; male, Sprague-Dawley, rat, plasma, po, 50 mg/kg, vehicle pretreated rats, carbamazepine 50 mg/kg oral, read-out: Cmax): 8170 ± 1460 ng/mL
- MRT ([2]; male, Sprague-Dawley, rat, plasma, po, 50 mg/kg, vehicle pretreated rats, carbamazepine 50 mg/kg oral, read-out: MRT): 5.46 ± 1.2 h

SMILES: NC(=O)N1c2ccccc2C2OC2c2ccccc21 (stereo not drawn) [CBZ-E, carbamazepine 10,11-epoxide]
- Cmax ([2]; BM pretreated rats (31 mg/kg/day 7 days), carbamazepine 50 mg/kg oral 24 h after last BM): 819 ± 170 ng/mL
- AUC(0-∞) [2, 7]: 15100 ± 7360 ng·h/mL
- MRT [2, 7]: 21.65 ± 7.69 h
- AUC(0-∞) [2, 8]: 14680 ± 2900 ng·h/mL
- CL/F [2, 8]: 3.31 ± 0.56 mL/h/kg
- Cmax [2, 8]: 1370 ± 11 ng/mL
- MRT [2, 8]: 10.05 ± 0.33 h

SMILES: C[C@H]1O[C@@H](O[C@H]2[C@@H](O)C[C@H](O[C@H]3[C@@H](O)C[C@H](O[C@H]4CC[C@@]5(C)[C@H](CC[C@@H]6[C@@H]5C[C@@H](O)[C@]5(C)[C@@H](C7=CC(=O)OC7)CC[C@]65O)C4)O[C@@H]3C)O[C@@H]2C)C[C@H](O)[C@@H]1O [Digoxin, digoxin]
- decrease in CL/F with BM pre-treatment [3, 9]: 27%
- increase in AUC with BM pre-treatment [3, 9]: 37%
- increase in Cmax with BM pre-treatment [3, 9]: 9%
- increase in MRT with BM pre-treatment [3, 9]: 17%
- increase in T1/2 with BM pre-treatment [3, 9]: 48%
- increase in AUC following BM pre-treatment [3, 5]: 1.3 fold
- AUC(0-inf) [3, 10]: 70.71 ± 0.351 ng·h/mL
- CL/F [3, 10]: 3.53 mL/h/kg
- MRT [3, 10]: 8.88 ± 1.28 h
- Vd/F [3, 10]: 0.0221 ± 0.0103 L/kg
- half-life [3, 10]: 4.33 ± 2.03 h
- Cmax ([3]; BM pretreated rats (31 mg/kg/day 7 days), digoxin 0.2 mg/kg oral 24 h after last BM): 5.28 ± 0.205 ng/mL
- AUC(0-inf) [3, 11]: 51.5 ± 6.1 ng·h/mL
- CL/F [3, 11]: 4.88 mL/h/kg
- Cmax [3, 11]: 4.82 ± 0.092 ng/mL
- MRT [3, 11]: 7.56 ± 0.0147 h
- Vd/F [3, 11]: 0.0208 ± 0.00471 L/kg
- half-life [3, 11]: 2.92 ± 0.322 h
- increase in tissue digoxin concentration in intestine ([4]; intestine): 1.3 fold
- increase in tissue digoxin concentration in kidney ([4]; kidney): 1.3 fold
